Measurements reported in the NIST ThermoML archive (doi:10.1021/je400207t).
Where “and” joins values, the source holds several entries; their conditions need not be identical. Equal entries are not always repeated.

Tests used:
[1] = Molar enthalpy of transition or fusion; conditions: DSC
[2] = for vapor or sublimation pressure: Calculated from knudsen effusion weight loss

O[C@@H]1[C@@H](O)[C@@H]2OC[C@@H](O2)[C@H]1O [1,6-anhydro-β-D-glucopyranose]
Conditions | Molar enthalpy of transition or fusion, Crystal 1 [kcal/mol] | Molar enthalpy of transition or fusion, Crystal 2 [kcal/mol] | Normal melting temperature, Crystal 1, DTA [°C] | Triple point temperature, Crystal 2, DTA [K]
[1] | 0.789 | 5.54 | – | –
[2] | – | – | 182.2 | 384.9

[2], Crystal 2
Conditions | vapor or sublimation pressure
361.13 K | 5.35e-05 kPa and 6.29e-05 kPa and 5.88e-05 kPa
363.14 K | 7.32e-05 kPa and 7.78e-05 kPa
365.22 K | 0.000102 kPa and 0.000101 kPa and 9.67e-05 kPa
367.16 K | 0.00012 kPa and 0.000119 kPa and 0.000113 kPa
369.14 K | 0.000164 kPa and 0.000144 kPa and 0.000152 kPa
371.15 K | 0.000183 kPa and 0.000192 kPa
373.15 K | 0.000247 kPa and 0.000231 kPa
375.13 K | 0.000317 kPa and 0.00028 kPa and 0.000289 kPa
377.22 K | 0.000407 kPa and 0.000368 kPa and 0.000396 kPa
379.15 K | 0.000476 kPa and 0.000472 kPa and 0.000458 kPa
